# Measured values as given in PMC7915026, “Sulfaguanidine Hybrid with Some New Pyridine-2-One Derivatives: Design, Synthesis, and Antimicrobial Activity against Multidrug-Resistant Bacteria as Dual DNA Gyrase and DHFR Inhibitors” (Antibiotics, 2021).
# Where two headings read alike, the source gives them in different places.
# Columns and labels:
# [1] = test system: C. albicans (ATCC 10231); assay: Inhibition zone, paper disk/agar diffusion; assay type: cell-based; conditions: Na = no activity
# Procedure, shortened: (§1)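 Agar diffusion; IZ diameter in mm. Positive control: norfloxacin.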
# [2] = test system: E. coli ATCC 25922; assay: Inhibition zone, paper disk/agar diffusion; assay type: cell-based; conditions: E. coli; Na = no activity
# Procedure, shortened: as §1
# [3] = test system: E. faecalis ATCC 29212; assay: Inhibition zone, paper disk/agar diffusion; further: test concentration or dose not given here; assay type: cell-based; conditions: E. faecalis; Na = no activity
# Procedure, shortened: as §1
# [4] = test system: F. oxysporum (RCMB 008002); assay: Inhibition zone, paper disk/agar diffusion; assay type: cell-based; conditions: Na = no activity; further: test concentration or dose not given here
# Procedure, shortened: as §1
# [5] = test system: P. aeruginosa ATCC 27853; assay: Inhibition zone, paper disk/agar diffusion; assay type: cell-based; conditions: P. aeruginosa; Na = no activity
# Procedure, shortened: as §1
# [6] = test system: S. aureus ATCC 29213; assay: Inhibition zone, paper disk/agar diffusion; further: test concentration or dose not given here; assay type: cell-based; conditions: S. aureus; Na = no activity
# Procedure, shortened: as §1
# [7] = test system: S. typhi ATCC 6539; assay: Inhibition zone, paper disk/agar diffusion; assay type: cell-based; conditions: S. typhi; Na = no activity
# Procedure, shortened: as §1
# [8] = test system: B. subtilis ATCC 6633; assay: MIC and MBC determination; assay type: cell-based; conditions: B. subtilis
# [9] = test system: S. aureus ATCC 29213; assay: MIC and MBC determination; assay type: cell-based; conditions: S. aureus
# [10] = test system: E. faecalis ATCC 29212; assay: MIC and MBC determination; assay type: cell-based; conditions: Enterococcus faecalis, ATCC29212, E. faecalis
# [11] = test system: E. coli ATCC 25922; assay: MIC and MBC determination; assay type: cell-based; conditions: E. coli
# [12] = test system: P. aeruginosa ATCC 27853; assay: MIC and MBC determination; assay type: cell-based; conditions: Pseudomonas aeruginosa, ATCC27853, P. aeruginosa
# [13] = test system: Salmonella typhi (S. typhi ATCC 6539); assay: microbe, parasite or virus in culture; assay type: cell-based; conditions: Salmonella enterica, Salmonella typhi
# [14] = test system: C. albicans (ATCC 10231); assay: MIC and MFC determination; assay type: cell-based
# [15] = test system: E. coli ATCC BAA-196; assay: Inhibition zone against multidrug-resistant bacteria; further: test concentration or dose not given here; assay type: cell-based; conditions: MDRB E. coli ATCC BAA-196
# Procedure, shortened: as §1
# [16] = test system: P. aeruginosa ATCC BAA-2111; assay: as above; assay type: cell-based; conditions: MDRB P. aeruginosa ATCC BAA-2111
# Procedure, shortened: as §1
# [17] = test system: S. aureus ATCC 33591; assay: as above; assay type: cell-based; conditions: MDRB S. aureus ATCC 33591
# Procedure, shortened: as §1
# [18] = test system: S. aureus ATCC 43300; assay: as above; assay type: cell-based; conditions: MDRB S. aureus ATCC 43300
# Procedure, shortened: as §1
# [19] = test system: E. coli ATCC BAA-196; assay: MIC and MBC against multidrug-resistant strains; assay type: cell-based; conditions: E. coli ATCC BAA-196
# Excerpt: (§2) Norfloxacin was used as a positive control for the multidrug resistance study.
# (§3) The experiment was repeating for three-times.
# [20] = test system: P. aeruginosa ATCC BAA-2111; assay: MIC and MBC against multidrug-resistant strains; assay type: cell-based; conditions: P. aeruginosa ATCC BAA-2111
# Excerpt: as §2, §3
# [21] = test system: S. aureus ATCC 33591; assay: MIC and MBC against multidrug-resistant strains; assay type: cell-based; conditions: Staphylococcus aureus, ATCC33591, S. aureus ATCC 33591
# Excerpt: as §2, §3
# [22] = test system: S. aureus ATCC 43300; assay: MIC and MBC against multidrug-resistant strains; assay type: cell-based; conditions: Staphylococcus aureus, ATCC43300, S. aureus ATCC 43300
# Excerpt: as §2, §3
# [23] = molecular target: S. aureus DNA gyrase (Staphylococcus aureus, UniProt P0A0K8+P20831); assay: In vitro DNA gyrase supercoiling enzymatic assay; assay type: biochemical
# Sequence of S. aureus DNA gyrase (P20831 whole entry): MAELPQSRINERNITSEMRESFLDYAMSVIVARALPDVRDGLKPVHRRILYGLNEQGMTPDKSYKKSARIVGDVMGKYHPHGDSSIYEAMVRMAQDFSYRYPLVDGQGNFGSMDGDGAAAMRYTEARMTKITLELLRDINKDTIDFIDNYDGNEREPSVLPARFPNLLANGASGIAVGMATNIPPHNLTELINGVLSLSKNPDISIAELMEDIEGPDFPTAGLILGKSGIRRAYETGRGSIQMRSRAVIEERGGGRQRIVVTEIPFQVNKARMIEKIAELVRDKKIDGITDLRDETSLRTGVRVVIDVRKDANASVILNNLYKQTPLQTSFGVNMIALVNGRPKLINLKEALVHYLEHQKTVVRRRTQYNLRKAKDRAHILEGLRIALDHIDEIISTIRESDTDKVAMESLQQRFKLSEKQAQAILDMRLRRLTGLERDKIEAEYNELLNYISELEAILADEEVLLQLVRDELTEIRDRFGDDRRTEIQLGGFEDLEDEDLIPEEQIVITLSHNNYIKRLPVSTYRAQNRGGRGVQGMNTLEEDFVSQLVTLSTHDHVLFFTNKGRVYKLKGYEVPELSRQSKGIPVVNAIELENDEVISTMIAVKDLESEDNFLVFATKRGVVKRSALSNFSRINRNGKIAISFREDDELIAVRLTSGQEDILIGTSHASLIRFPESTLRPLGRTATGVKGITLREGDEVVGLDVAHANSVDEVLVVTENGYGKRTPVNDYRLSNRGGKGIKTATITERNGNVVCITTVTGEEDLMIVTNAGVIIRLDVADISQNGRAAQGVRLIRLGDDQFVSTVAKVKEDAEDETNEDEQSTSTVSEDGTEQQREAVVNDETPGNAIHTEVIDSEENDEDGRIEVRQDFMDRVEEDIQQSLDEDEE
# Sequence of S. aureus DNA gyrase (P0A0K8 whole entry): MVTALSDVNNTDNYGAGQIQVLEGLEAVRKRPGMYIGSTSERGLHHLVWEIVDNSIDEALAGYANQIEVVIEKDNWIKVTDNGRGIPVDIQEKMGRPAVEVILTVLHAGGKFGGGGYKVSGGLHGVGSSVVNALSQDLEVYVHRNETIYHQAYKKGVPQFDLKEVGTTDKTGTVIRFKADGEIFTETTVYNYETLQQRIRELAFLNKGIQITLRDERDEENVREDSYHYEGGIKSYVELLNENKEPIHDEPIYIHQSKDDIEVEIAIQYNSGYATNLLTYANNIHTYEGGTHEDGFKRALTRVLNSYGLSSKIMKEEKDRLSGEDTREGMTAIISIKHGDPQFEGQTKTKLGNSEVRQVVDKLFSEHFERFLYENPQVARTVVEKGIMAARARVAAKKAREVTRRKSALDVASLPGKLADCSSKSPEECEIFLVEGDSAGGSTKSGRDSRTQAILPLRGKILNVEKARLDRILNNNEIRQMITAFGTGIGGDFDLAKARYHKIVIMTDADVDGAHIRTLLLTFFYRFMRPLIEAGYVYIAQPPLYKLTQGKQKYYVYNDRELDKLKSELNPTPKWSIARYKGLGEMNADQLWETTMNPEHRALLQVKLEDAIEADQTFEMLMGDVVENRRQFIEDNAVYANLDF
# [24] = molecular target: E. coli DHFR (dihydrofolate reductase) (Escherichia coli, UniProt P0ABQ4); assay: In vitro DHFR enzymatic assay; assay type: biochemical
# Sequence of E. coli DHFR (dihydrofolate reductase) (P0ABQ4 whole entry): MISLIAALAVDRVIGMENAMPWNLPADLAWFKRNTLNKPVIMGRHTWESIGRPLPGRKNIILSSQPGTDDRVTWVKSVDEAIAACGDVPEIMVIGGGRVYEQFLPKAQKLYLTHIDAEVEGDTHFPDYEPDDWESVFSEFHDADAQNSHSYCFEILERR
# [25] = test system: neutrophils; assay: In vitro intracellular killing, nitro blue tetrazolium (NBT) reduction assay; assay type: cell-based
# Protocol: One of the broad methods used for determining immune disorders for patients in hospitals is the NBT test to measure their immune responses. The reduction in NBT dye provides information about the phagocytic and intracellular killing functions of neutrophils, which are important for microbiocidal activity. The most promising derivatives (2a, 2b, 2d, 3a, 8, and 11) were evaluated against in vitro intracellular killing activities using a nitro blue tetrazolium (NBT) reduction assay and the obtained results expressed in percentage (%): increasing the percentage led to an improvement in the killing ability of the neutrophils used as innate immunity.
# In vitro intracellular killing activities for the most promising six derivatives 2a, 2b, 2d, 3a, 8, and 11 were performed according to reported methods.
# [26] = test system: CD4+ and CD8+ T lymphocytes; assay: In vivo T lymphocyte subsets from peripheral blood, flow cytometry; conditions: mice
# [27] = test system: MDRB strains; assay: MIC and MBC, ranges over the MDRB panel; assay type: cell-based; conditions: four MDRB strains
# Excerpt: as §2, §3
# Wherever Mean Diameter of Inhibition Zone is given: test concentration or dose not given here.
smiles,measurement,setting,value
"COc1ccc(/C=C(\C#N)C(=O)Nc2ccc(S(=O)(=O)NC(=N)N)cc2)cc1O [Compound 2d, N-(4-(N-Carbamimidoylsulfamoyl)phenyl)-2-cyano-3-(3-hydroxy-4-methoxyphenyl) acryl-amide]",Mean Diameter of the Inhibition Zone,[1],27 ± 0.50 mm
same,Mean Diameter of the Inhibition Zone,[2],30 ± 0.29 mm
same,Mean Diameter of the Inhibition Zone,[3],29 ± 0.17 mm
same,Mean Diameter of the Inhibition Zone,[4],22 ± 0.11 mm
same,Mean Diameter of the Inhibition Zone,[5],27 ± 0.73 mm
same,Mean Diameter of the Inhibition Zone,[6],33 ± 0.53 mm
same,Mean Diameter of the Inhibition Zone,[7],29 ± 0.20 mm
same,MBC,[8],9.38 ± 0.96 µM
same,MIC,[8],4.69 ± 0.98 µM
same,MBC,"[8]; Bacillus subtilis, ATCC6633, read-out: MBC",9.38 µM
same,MIC,"[8]; Bacillus subtilis, ATCC6633, read-out: MIC",4.69 µM
same,MBC,[9],13.40 ± 0.54 µM
same,MIC,[9],13.40 ± 0.98 µM
same,MBC,"[9]; Staphylococcus aureus, ATCC29213, read-out: MBC",13.4 µM
same,MIC,"[9]; Staphylococcus aureus, ATCC29213, read-out: MIC",13.4 µM
same,MBC,[10]; read-out: MBC,15.9 ± 0.58 µM
same,MIC,[10]; read-out: MIC,9.38 ± 0.24 µM
same,MBC,[11],4.66 ± 0.21 µM
same,MIC,[11],2.33 ± 0.32 µM
same,MBC,"[11]; Escherichia coli, ATCC25922, read-out: MBC",4.66 µM
same,MIC,"[11]; Escherichia coli, ATCC25922, read-out: MIC",2.33 µM
same,MBC,[12]; read-out: MBC,25.5 ± 0.65 µM
same,MIC,[12]; read-out: MIC,13.4 ± 0.25 µM
same,MBC,[13]; read-out: MBC,30.1 ± 0.75 µM
same,MIC,[13]; read-out: MIC,18.8 ± 0.85 µM
same,MFC,[14],37.60 ± 0.38 µM
same,MFC/MIC,[14],<2
same,MIC,[14],18.80 ± 0.65 µM
same,MFC,"[14]; Candida albicans, ATCC10231, read-out: MFC",37.6 µM
same,MIC,"[14]; Candida albicans, ATCC10231, read-out: MIC",18.8 µM
same,Mean Diameter of Inhibition Zone,[15],25 ± 0.86 mm
same,Mean Diameter of Inhibition Zone,[16],26 ± 0.41 mm
same,Mean Diameter of Inhibition Zone,[17],24 ± 0.32 mm
same,Mean Diameter of Inhibition Zone,[18],27 ± 0.3 mm
same,MBC,[19],9.38 ± 0.54 µM
same,MIC,[19],4.69 ± 0.36 µM
same,MBC,"[19]; Escherichia coli, ATCCBAA196, read-out: MBC",9.38 µM
same,MIC,"[19]; Escherichia coli, ATCCBAA196, read-out: MIC",4.69 µM
same,MBC,[20],18.77 ± 0.61 µM
same,MIC,[20],9.38 ± 0.49 µM
same,MBC,"[20]; Pseudomonas aeruginosa, ATCCBAA2111, read-out: MBC",18.8 µM
same,MIC,"[20]; Pseudomonas aeruginosa, ATCCBAA2111, read-out: MIC",9.38 µM
same,MBC,[21]; read-out: MBC,18.8 ± 0.25 µM
same,MIC,[21]; read-out: MIC,9.38 ± 0.32 µM
same,MBC,[22]; read-out: MBC,9.38 ± 0.41 µM
same,MIC,[22]; read-out: MIC,4.69 ± 0.25 µM
same,IC50,[23],18.2 ± 1.18 µM
same,IC50,[24],4.33 ± 0.18 µM
same,fold relative to trimethoprim,[24]; E. coli DHFR IC50,1.19 fold
same,Intracellular Killing Activity,[25],142.4 ± 0.98%
same,T cells CD4+,[26],79.61 ± 0.3%
same,T cells CD8+,[26],27.05 ± 0.5%
same,MBC range,[27],9.38 to 18.77 µM
same,MIC range,[27],4.69 to 9.38 µM
